Test results from patent publication EP0045161A1, “Amides of 4-oxo-5-amidohexanoic acid derivatives” (IMPERIAL CHEMICAL INDUSTRIES PLC, priority 1980, dated 1982).

Molecular target: angiotensin converting enzyme (Homo sapiens, UniProt P12821)
Test: inhibition of angiotensin converting enzyme (cleavage of angiotensin I or a related synthetic peptide by ACE)
Assay type: biochemical
Description: ACE is the enzyme which converts angiotensin I to angiotensin II.

Chain of angiotensin converting enzyme (P12821 30-1306, species assumed): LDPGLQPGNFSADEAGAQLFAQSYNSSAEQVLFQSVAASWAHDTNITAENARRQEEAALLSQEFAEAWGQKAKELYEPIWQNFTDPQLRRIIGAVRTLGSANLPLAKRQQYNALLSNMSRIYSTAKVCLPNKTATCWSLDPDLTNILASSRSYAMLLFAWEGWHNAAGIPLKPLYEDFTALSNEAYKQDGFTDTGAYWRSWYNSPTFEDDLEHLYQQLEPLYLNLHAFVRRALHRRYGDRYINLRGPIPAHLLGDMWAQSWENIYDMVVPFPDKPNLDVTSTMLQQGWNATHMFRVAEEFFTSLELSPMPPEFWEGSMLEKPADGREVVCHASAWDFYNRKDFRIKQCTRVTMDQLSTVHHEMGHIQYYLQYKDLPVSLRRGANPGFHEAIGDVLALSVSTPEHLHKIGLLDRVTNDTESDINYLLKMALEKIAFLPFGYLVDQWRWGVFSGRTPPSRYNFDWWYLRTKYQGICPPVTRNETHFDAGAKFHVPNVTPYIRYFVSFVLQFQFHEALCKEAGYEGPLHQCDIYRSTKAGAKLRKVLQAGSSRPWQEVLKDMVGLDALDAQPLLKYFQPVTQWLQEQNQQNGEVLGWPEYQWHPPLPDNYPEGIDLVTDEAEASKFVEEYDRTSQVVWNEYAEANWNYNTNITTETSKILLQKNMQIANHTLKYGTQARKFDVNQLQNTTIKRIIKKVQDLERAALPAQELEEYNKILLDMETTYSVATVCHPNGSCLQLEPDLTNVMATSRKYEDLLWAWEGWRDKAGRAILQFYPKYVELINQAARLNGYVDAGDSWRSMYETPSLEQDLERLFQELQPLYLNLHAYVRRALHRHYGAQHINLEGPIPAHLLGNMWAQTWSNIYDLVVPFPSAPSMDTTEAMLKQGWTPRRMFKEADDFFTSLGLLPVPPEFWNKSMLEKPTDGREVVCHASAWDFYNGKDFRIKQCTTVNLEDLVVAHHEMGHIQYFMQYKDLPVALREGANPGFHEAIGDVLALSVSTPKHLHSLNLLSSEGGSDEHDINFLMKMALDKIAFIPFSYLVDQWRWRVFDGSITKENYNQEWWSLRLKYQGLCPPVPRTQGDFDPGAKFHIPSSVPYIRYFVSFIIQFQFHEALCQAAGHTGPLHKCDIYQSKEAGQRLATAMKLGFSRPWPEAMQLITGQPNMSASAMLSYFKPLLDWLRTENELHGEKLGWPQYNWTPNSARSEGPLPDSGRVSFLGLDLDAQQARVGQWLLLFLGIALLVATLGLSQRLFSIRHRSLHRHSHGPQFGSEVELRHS

times more active as an inhibitor or angiotensin converting enzyme (relative to the less polar isomer (Compound No. 6D), isomers at the 5-carbon atom of the hexanoyl chain)	times more active as an inhibitor of angiotensin converting enzyme (relative to the more polar isomer (Compound No. 6B), isomers at the 2-carbon atom of the hexanoyl chain)	SMILES
100 times	–	CC(CC(=O)C(Cc1ccccc1)NC(=O)c1ccccc1)C(=O)N1CCC[C@H]1C(=O)OC(C)(C)C (single isomer, unassigned) [Compound No. 6C]
–	10 times	CC(CC(=O)C(Cc1ccccc1)NC(=O)c1ccccc1)C(=O)N1CCC[C@H]1C(=O)OC(C)(C)C (single isomer, unassigned) [Compound No. 6A]
